Columns and labels:
[1] = biological target: T1, thromboxane synthetase (Homo sapiens, UniProt P24557); assay: in vitro inhibition of thromboxane synthetase (TxB2/PGF2 α+β ratio from 14C-arachidonic acid); assay type: biochemical; settings: 30 minutes incubation
T1 construct: crude microsomal preparation of thromboxane synthetase from lysed human platelets; from tissue; host or cells: lysed human platelets, crude microsomal preparation
T1 sequence (P24557 1-533): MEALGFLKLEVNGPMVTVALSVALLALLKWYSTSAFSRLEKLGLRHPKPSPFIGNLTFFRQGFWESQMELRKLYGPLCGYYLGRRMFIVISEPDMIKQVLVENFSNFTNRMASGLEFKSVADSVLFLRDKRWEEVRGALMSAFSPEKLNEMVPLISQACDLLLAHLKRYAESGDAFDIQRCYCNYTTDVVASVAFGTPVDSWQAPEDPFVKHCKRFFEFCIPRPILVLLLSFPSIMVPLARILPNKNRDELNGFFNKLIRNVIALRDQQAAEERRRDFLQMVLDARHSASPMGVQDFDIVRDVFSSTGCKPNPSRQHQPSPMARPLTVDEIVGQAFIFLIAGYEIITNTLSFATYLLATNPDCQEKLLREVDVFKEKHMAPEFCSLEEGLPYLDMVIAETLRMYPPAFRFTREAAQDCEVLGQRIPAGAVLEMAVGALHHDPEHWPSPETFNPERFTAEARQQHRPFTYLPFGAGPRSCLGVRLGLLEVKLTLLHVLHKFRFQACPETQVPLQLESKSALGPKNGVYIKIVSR
Method: Res. Comm. 74, 1432 (1977); the testing procedure is as follows:
^14 C-Arachidonic acid is incubated with an enzyme preparation consisting of solubilized and partially purified prostaglandin cyclo-oxygenase from sheep seminal vesicles and a crude microsomal preparation of thromboxane synthetase from lysed human platelets. The test compound (dissolved in buffer, or if necessary, in a small amount of ethanol) is added to the incubation medium. At the end of the incubation period (30 minutes), Prostaglandin E2 (PGE2) is reduced to a mixture of Prostaglandin F2 α and F2 β [PGF2 (α+β)] by addition of sodium borohydride. The radioactive products and excess substrate are extracted into ethyl acetate; the extract is evaporated to dryness; the residue is dissolved in acetone, spotted on thin-layer plates and chromatographed in the solvent system toluene: acetone: glacial acetic acid (100 volumes: 100 volumes: 3 volumes). The radioactive zones are located; those corresponding to Thromboxane B2 (TxB2) and PGF2 α+β are transferred to liquid scintillation vials and counted. The ratio of counts for TxB2 /PGF2 α+β is calculated for each concentration of test compound and IC50 values are determined graphically as the concentration of test compound at which the ratio of TxB2 /PGF2 α+β is reduced to 50% of the control value.

[2] = tested on: 6-keto-PGF1 α; assay: in vivo plasma level of 6-keto-PGF1 α (prostacyclin metabolite) in rats after ionophore A23187; settings: rat; ionophore A23187 0.5 mg/kg i.v. two hours after dosing
Method: (§1) The inhibition of the synthesis and the reduction of plasma levels of thromboxane is determined in vivo or administration to rats in the following manner (as adapted from the procedures described by Tai et al. in Anal. Biochem. 87:343, 1978 and by Salmon in Prostaglandins 15:383, 1978):
(§2) Rats are dosed with vehicle or test drug and injected intravenously with ionophore A23187 (0.5 mg/kg) two hours later. Blood is collected for analysis 2 minutes after the ionophore injection. A single aliquot of each plasma sample is assayed for thromboxane B2 and another aliquot for 6-keto-PGF1 α (the stable metabolite of prostacyclin, by radioimmunoassay.

[3] = tested on: thromboxane B2; assay: in vivo reduction of plasma thromboxane B2 in rats after ionophore A23187; settings: rat, oral dose of 5 mg/Kg or lower; ionophore A23187 0.5 mg/kg i.v. two hours after dosing
Method: as §1, §2

Row | IC50 [1] [µM] | SMILES | increase in the plasma level of the prostacyclin metabolite 6-keto-PGF1 α [2] | reduction of the plasma concentration of thromboxane B2 [3]
1 | ~0.01 | c1cc(CCCCc2nnn[nH]2)n2cncc2c1 [5-[4-(5-tetrazolyl)butyl]-imidazo[1,5-a]pyridine] | significant increase | over 50%
2 | ~0.3 | O=C(CCCCCc1cccc2cncn12)NO [5-[5-(hydroxycarbamoyl)pentyl]-imidazo[1,5-a]-pyridine] |  | 
3 | ~0.003 | O=C(O)CCCCCc1c(OCc2ccccc2)ccc2cncn12 [6-benzyloxy-5-(5-carboxypentyl)imidazo[1,5-a]pyridine] |  | 

From patent US4470986A, “Certain imidazo (1,5-A) pyridine aliphatic carboxylic acid derivatives and their use as selective thromboxane inhibitors” (Ciba-Geigy Corporation, priority 1982, dated 1984)
